Source: ChEMBL document CHEMBL4257544, “Synthesis and biological evaluation of novel asymmetric naphthalene diimide derivatives as anticancer agents depending on ROS generation” (Medchemcomm, 2018)
Active and inactive are the calls of the source. The rule behind the calls is not given here.

Experiments:
Type in all cases: functional, cell-based
HepG2 [1] = assay: Induction of autophagy in human HepG2 cells after 24 hrs by MDC staining based HCS analysis
HepG2 [2] = assay: Induction of autophagy in human HepG2 cells assessed as decrease in p62 level at 1 to 3 uM by Western blot analysis
HepG2 [3] = assay: Induction of apoptosis in human HepG2 cells assessed as increase in cleaved PARP1 protein expression treated at 1 hr post antioxidant alpha-tocopherol addition and measured after 24 hrs by Western blot analysis
HepG2 [4] = assay: Induction of apoptosis in human HepG2 cells assessed as increase in cleaved PARP1 protein expression at 1 to 3 uM after 24 hrs by Western blot analysis
HepG2 [5] = assay: Induction of autophagy in human HepG2 cells assessed as increase in BECN1 level at 1 to 3 uM by Western blot analysis
HepG2 [6] = assay: Downregulation of Akt phosphorylation at […] residue in human HepG2 cells at 1 to 3 uM after 24 hrs by Western blot analysis
HepG2 [7] = assay: Cytotoxicity against human HepG2 cells after 48 hrs by MTT assay; settings: HepG2, 48 h
SMMC-7721 [8] = assay: Cytotoxicity against human SMMC7721 cells after 48 hrs by MTT assay; settings: SMMC-7721, 48 h
SMMC-7721 [9] = assay: Induction of apoptosis in human SMMC7721 cells assessed as increase in cleaved PARP1 protein expression treated at 1 hr post antioxidant alpha-tocopherol addition and measured after 24 hrs by Western blot analysis
HepG2 [10] = assay: Antimigratory activity against human HepG2 cells at 1 to 3 uM after 24 hrs by crystal violet staining based transwell migration assay
MDA-MB-231 = assay: Cytotoxicity against human MDA-MB-231 cells after 48 hrs by MTT assay; settings: MDA-MB-231, 48 h
SMMC-7721 [11] = assay: Induction of autophagy in human SMMC7721 cells assessed as increase in BECN1 level at 1 to 3 uM by Western blot analysis
HepG2 [12] = assay: Induction of apoptosis in human HepG2 cells assessed as increase in caspase-8 activation at 1 to 3 uM after 24 hrs by Western blot analysis
SMMC-7721 [13] = assay: Induction of autophagy in human SMMC7721 cells assessed as increase in LC3-2 level by Western blot analysis
SMMC-7721 [14] = assay: Induction of autophagy in human SMMC7721 cells assessed as decrease in p62 level at 1 to 3 uM by Western blot analysis
SMMC-7721 [15] = assay: Induction of apoptosis in human SMMC7721 cells after 24 hrs by acridine orange/ethidium bromide and Hoechst 33342 staining based HCS analysis
HepG2 [16] = assay: Induction of autophagy in human HepG2 cells assessed as increase in LC3-2 level by Western blot analysis
SMMC-7721 [17] = assay: Induction of apoptosis in human SMMC7721 cells after 24 hrs by Annexin V/propidium iodide staining based flow cytometry
SMMC-7721 [18] = assay: Downregulation of Akt phosphorylation at […] residue in human SMMC7721 cells at 1 to 3 uM after 24 hrs by Western blot analysis
SMMC-7721 [19] = assay: Downregulation of beta-catenin protein expression in human SMMC7721 cells treated at 1 hr post antioxidant alpha-tocopherol addition and measured after 24 hrs by Western blot analysis
SMMC-7721 [20] = assay: Cytotoxicity against human SMMC7721 cells assessed as reduction in cell viability in presence of autophagy inhibitor 3-MA by MTT assay
SMMC-7721 [21] = assay: Induction of autophagy in human SMMC7721 cells assessed as autophagosome formation at 2 uM after 12 hrs by transmission electron microscopic method
HepG2 [22] = assay: Induction of apoptosis in human HepG2 cells assessed as increase in p53 protein expression treated at 1 hr post antioxidant alpha-tocopherol addition and measured after 24 hrs by Western blot analysis
HepG2 [23] = assay: Induction of apoptosis in human HepG2 cells assessed as increase in p53 protein expression at 1 to 3 uM after 24 hrs by Western blot analysis
SMMC-7721 [24] = assay: Induction of apoptosis in human SMMC7721 cells assessed as increase in caspase-8 activation at 1 to 3 uM after 24 hrs by Western blot analysis
HepG2 [25] = assay: Downregulation of beta-catenin protein expression in human HepG2 cells at 1 to 3 uM after 24 hrs by Western blot analysis

`CCCCN1C(=O)c2ccc3c4c(ccc(c24)C1=O)C(=O)N(CCCN(C)C)C3=O` was tested, and the Activity (HepG2 [1]) was “Dose-dependent effect”, the Activity (HepG2 [2]) was “Active” and the Activity (HepG2 [3]) was “inactive”. The Activity (HepG2 [4]) was “Active”, the Activity (HepG2 [5]) was “Active” and the Activity (HepG2 [6]) was “Active”. The IC50 (HepG2 [7]) was 1480 nM, the IC50 (SMMC-7721 [8]) was 1700 nM and the Activity (SMMC-7721 [9]) was “inactive”. For the same compound, the Activity (HepG2 [10]) was “Active”, the IC50 (MDA-MB-231) was 5.79 µM and the Activity (SMMC-7721 [11]) was “Active”. The Activity (HepG2 [12]) was “Active”, the Activity (SMMC-7721 [13]) was “Dose-dependent effect” and the Activity (SMMC-7721 [14]) was “Active”. For the same compound, the Activity (SMMC-7721 [15]) was “Dose-dependent effect”, the Activity (HepG2 [16]) was “Dose-dependent effect” and the Activity (SMMC-7721 [17]) was “Dose-dependent effect”. The Activity (SMMC-7721 [18]) was “Active”, the Activity (SMMC-7721 [19]) was “inactive” and the Activity (SMMC-7721 [20]) was “inactive”. For the same compound, the Activity (SMMC-7721 [21]) was “Active”, the Activity (HepG2 [22]) was “inactive” and the Activity (HepG2 [23]) was “Active”. For the same compound, the Activity (SMMC-7721 [24]) was “Active” and the Activity (HepG2 [25]) was “Active”.
